Experimental data: US8609151B2, “Treatment of erectile dysfunction and libido enhancement” (CSIR, priority 2006, dated 2013)
≈ marks a conversion by molar mass, not a printed value. Entries after “also recorded” stand apart in the source; their conditions may differ. Read-outs that look alike come from different tables or passages of the source.

Key:
[1] = tested on: Chinese hamster ovarian cells (CHO); assay: in vitro cytotoxicity, MTT assay; settings: for IC50: Cricetulus griseus; for cytotoxicity against Chinese hamster ovarian cells: at the test concentrations
Experimental: In vitro cytotoxicity against mammalian cell line was assayed against Chinese hamster ovarian cells by the Assay Laboratory of the Department of Medicine, Division of Pharmacology, University of Cape Town, South Africa.
All samples were tested in triplicate on a single occasion. The MTT-assay was used as a calorimetric assay for cellular growth and survival, and compares well with other available assays (Mosman, Journal of Immunological Methods 65, 55-63 (1983) and Rubinstein et al., Journal of the National Cancer Institute 82, 1113-8 (1990)). The tetrazolium salt MTT was used to measure all growth and chemosensitivity.
Aqueous samples were dissolved in water and organic samples were dissolved in a methanol:water mixture (1:9) by volume. The initial concentration of stock solutions was 2 mg/ml for all samples. Samples were stored at −20° C. until use. […] Emetine was used as the positive control in all experiments. The initial concentration of emetine was 100 μg/ml, which was serially diluted in complete medium with 10-fold dilutions to give 6 concentrations, the lowest being 0.001 μg/ml. The same dilution technique was applied to all other samples with an initial concentration of 100 μg/ml to give 5 concentrations, with the lowest concentration being 0.01 μg/ml.
The 50% inhibitory concentration (IC50) values for these samples were obtained from dose-response curves, using a non-linear dose-response curve fitting analyses via GraphPad Prism v.2.01 software.

[2] = target: T1, Phosphodiesterase 5 enzyme, partially purified from human platelets (Homo sapiens, UniProt O76074); assay: in vitro inhibition of the phosphodiesterase 5 enzyme (MDS Pharma); type: biochemical
T1 construct: Phosphodiesterase 5 enzyme, partially purified from human platelets, was used; tissue MDS Pharma Laboratory in Taiwan (assay performed there); host or cells: human platelets
Experimental: Inhibition of the phosphodiesterase 5 enzyme limits the hydrolysis of cyclic Guanisine MonoPhosphate (cGMP) to acyclic Guanisine MonoPhosphate (5′GMP) and thereby increases the intracellular concentrations of cGMP which results in the relaxation of the corpus cavernosum smooth muscle. When this muscle is relaxed blood flows and fills the arteries causing the penis to erect.
The assay of the inhibition of the phosphodiesterase 5 enzyme was carried out by the MDS Pharma Laboratory in Taiwan. Phosphodiesterase 5 enzyme, partially purified from human platelets, was used. Test compounds and/or vehicles were incubated with 3.5 μg enzyme and 1 μM cGMP containing 0.01 μM [^3H]cGMP in Tris buffer at pH 7.5 for 20 minutes at 30° C. The reaction was terminated by boiling for 2 minutes and the resulting GMP was converted to guanosine by addition of 10 mg/ml snake venom nucleotidase and further incubation at 30° C. for 10 minutes. Unhydrolyzed cGMP was bound to AG1-X2 resin, and remaining [^3H]guanosine in the aqueous phase was quantitated by scintillation counting. […] Since enzyme activity could change from lot to lot, the concentration used was adjusted if necessary.

rabbit corpus cavernosum = rabbit corpus cavernosum relaxation/contraction, phenylephrine-contracted strip (MDS Pharma); type: cell-based; settings: for Smooth Muscle relaxation (%) at 30 μM: relative to 0.3 μM sodium nitroprusside response, significant at ≧50%; for rabbit corpus cavernosum smooth muscle relaxation: isolated compounds at test concentration
Experimental: Rabbit corpus cavernosum relaxation/contraction was measured by the MDS Pharma Laboratory. Corpus cavernosum obtained from New Zealand-derived albino male rabbits weighing 2.5-3 kg and sacrificed by CO2 overexposure was used. A strip from the basal area of the corpus cavernosal was removed and placed under 2 g tension in a 10 ml bath containing Krebs solution at pH 7.4 at 32° C. and sub-maximal isometrically recorded tonic contraction was induced by phenylephrine (3 μM).

[3] = tested on: rabbit corpus cavernosal smooth muscle; assay: relaxation of CaCl2 pre-contracted rabbit corpus cavernosal smooth muscle strips (University of Pretoria); type: cell-based
Experimental: Strips (12 mm long and 1-2 mm thick) of rabbit corpus cavernosal smooth muscle were dissected and mounted in an organ-bath chamber containing Krebs-PSS solution with the following composition: […] One end of the muscle was tied to the inside bottom of the perfusion bath and the other end to a thin wire connected to a Harvard isotonic force transducer for isotonic tension measurements. Changes in isotonic tension were recorded on a computerized calibrating program. […] This was followed by perfusion with 2 ml of high CaCl2 in Krebs-PSS (17.8 mg/ml) for muscle contraction. Base-line tension was set at the point of maximal contraction following the addition of CaCl2 into the experimental bath. The extracts to be analyzed were added after a stable contraction base-line. The same procedure was repeated for the positive control, Sildenafil. The contraction/relaxation was reported relative to Sildenafil tested at 78 ng/ml.

[4] = read-out: Chinese hamster ovarian cell test IC50, MTT assay, triplicate, values ≦1.0 considered cytotoxic
[5] = read-out: Phosphodiesterase 5 enzyme inhibition (%) at 10 μM, 10 μM, significant at ≧50%

Row | Compound | IC50 [1, 4] [µg/mL] | inhibition at 10 µM [2, 5] [%] | Smooth Muscle relaxation (%) at 30 μM (rabbit corpus cavernosum) [%] | cytotoxicity against Chinese hamster ovarian cells [1] | rabbit corpus cavernosum smooth muscle relaxation (rabbit corpus cavernosum) | further results
1 | CC[C@H]1CN2CCc3cc(OC)c(OC)cc3[C@@H]2C[C@@H]1C[C@H]1NCCc2cc(OC)c(OC)cc21 [Emetine, reference compound] | 0.04 (≈ 0.0832 µM) | – | – | – | – | –
2 | COc1ccc(CC2COC(=O)/C2=C\c2ccc3c(c2)OCO3)cc1OC (stereo not drawn) [Compound 6, 3-(1′,3′-benzodioxol-5′-ylmethylene)-4-(3″,4″-dimethoxybenzyl)dihydrofuran-2(5H)-one] | > 100 | 35 | 71 | non-cytotoxic; also recorded: least toxic | – | –
3 | COc1ccc(-c2c3c(c(O)c4cc5c(cc24)OCO5)COC3=O)cc1OC [Compound 5, 9-(3′,4′-dimethoxyphenyl)-4-hydroxy-6,7-methylenedioxynaphtho[2,3-c]furan-1(3H)-one] | 28.5 (≈ 74.9 µM) | 29 | 75 | non-cytotoxic | observed | –
4 | CCCc1nn(C)c2c(=O)[nH]c(-c3cc(S(=O)(=O)N4CCN(C)CC4)ccc3OCC)nc12 [Viagra] | – | – | – | – | – | relaxation ([3]; at […] 10^−2 μg/ml, footnote of Table 14, same figure as the Table 13 footnote): 100%; smooth muscle relaxation ([3]; at […] 10^−5 mg/ml, positive control): Viagra showed 100% smooth muscle relaxation at 1.8 × 10^−5 mg/ml
5 | COc1cc2c(-c3ccc4c(c3)OCO4)c3c(c(OC)c2c(OC)c1OC)COC3=O [Compound 3, 9-(1′,3′-benzodioxol-5′-yl)-4,5,6,7-tetramethoxynaphtho[2,3-c]furan-1(3H)-one] | – | – | 62 | – | – | inhibition at 10 µM ([2]; read-out: Phosphodiesterase 5 enzyme inhibition (%) at 10 μM): 11%; IC50 ([1]; read-out: Chinese hamster ovarian cell test IC50): 9 µg/mL (≈ 21.2 µM)
6 | COc1ccc(-c2c3c(c(OC)c4cc5c(cc24)OCO5)C(=O)OC3)cc1OC [Compound 7, 4-(3′,4′-dimethoxyphenyl)-9-methoxy-6,7-methylenedioxynaphtho[2,3-c]furan-1(3H)-one] | – | – | 57 | non-cytotoxic; also recorded: least toxic | observed | Phosphodiesterase 5 enzyme inhibition (%) at 10 μM ([2]; 10 μM, significant at ≧50%): 53%; phosphodiesterase 5 enzyme inhibition ([2]; isolated compounds at test concentration): Significant inhibition; Chinese hamster ovarian cell test IC50 ([1]; MTT assay, triplicate, values ≦1.0 considered cytotoxic): >100 µg/mL
